Test results from patent US12528819B2 (priority 2016, dated 2026).

Molecular target: T1, α5β2γ2 subtype GABAAR (Homo sapiens, UniProt P18507+P31644)
T1 construct: expressed in transfected cells
T1 sequence (P31644 32-462): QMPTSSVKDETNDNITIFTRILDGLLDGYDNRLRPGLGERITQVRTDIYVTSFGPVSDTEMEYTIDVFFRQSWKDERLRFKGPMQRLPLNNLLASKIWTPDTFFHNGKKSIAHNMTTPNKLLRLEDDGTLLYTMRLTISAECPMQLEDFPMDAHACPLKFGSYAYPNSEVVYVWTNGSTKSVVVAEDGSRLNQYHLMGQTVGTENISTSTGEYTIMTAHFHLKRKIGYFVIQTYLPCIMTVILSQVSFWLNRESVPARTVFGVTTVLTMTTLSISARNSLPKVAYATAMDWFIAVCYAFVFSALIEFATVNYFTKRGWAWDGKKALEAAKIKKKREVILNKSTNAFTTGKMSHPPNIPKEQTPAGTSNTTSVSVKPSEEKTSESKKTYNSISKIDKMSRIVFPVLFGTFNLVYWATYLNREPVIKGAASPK
T1 sequence (P47870 25-512 partner limits assumed): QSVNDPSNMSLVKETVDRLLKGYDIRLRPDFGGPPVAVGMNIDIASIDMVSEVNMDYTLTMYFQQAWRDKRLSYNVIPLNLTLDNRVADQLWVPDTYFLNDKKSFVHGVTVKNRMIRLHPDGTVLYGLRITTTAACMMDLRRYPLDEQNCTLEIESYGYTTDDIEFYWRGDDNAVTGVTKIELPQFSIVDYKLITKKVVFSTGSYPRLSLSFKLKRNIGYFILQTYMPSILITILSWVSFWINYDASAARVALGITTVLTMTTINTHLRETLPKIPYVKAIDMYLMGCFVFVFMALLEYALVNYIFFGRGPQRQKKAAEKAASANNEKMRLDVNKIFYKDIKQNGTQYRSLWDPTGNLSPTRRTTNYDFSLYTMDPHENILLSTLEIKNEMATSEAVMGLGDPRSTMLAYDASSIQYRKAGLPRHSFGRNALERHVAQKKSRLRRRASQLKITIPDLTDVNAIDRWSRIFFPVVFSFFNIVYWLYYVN
T1 sequence (P18507 40-467 limits assumed): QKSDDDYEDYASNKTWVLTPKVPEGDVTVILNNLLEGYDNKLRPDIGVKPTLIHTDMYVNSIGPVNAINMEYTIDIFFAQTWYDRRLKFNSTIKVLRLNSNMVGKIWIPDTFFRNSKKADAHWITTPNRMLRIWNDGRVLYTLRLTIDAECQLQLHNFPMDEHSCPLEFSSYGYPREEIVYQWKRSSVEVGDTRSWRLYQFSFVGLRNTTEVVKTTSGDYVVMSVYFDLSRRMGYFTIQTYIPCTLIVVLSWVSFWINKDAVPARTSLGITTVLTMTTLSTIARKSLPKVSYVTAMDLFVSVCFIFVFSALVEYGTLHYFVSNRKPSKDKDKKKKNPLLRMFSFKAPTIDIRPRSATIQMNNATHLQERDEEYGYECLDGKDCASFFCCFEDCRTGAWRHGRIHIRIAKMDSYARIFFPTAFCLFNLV
Assay: Positive allosteric modulator activity: potentiation of EC20 GABA current in oocytes
Type: cell-based
Conditions: read-out: GABA α5 Functional Data (potentiation), @ 100 nM, reported as ranges
Protocol: (B) Positive Allosteric Modulator Activity of Test Compounds on α5β2γ2 Subtype GABAAR
On day 1, 1 ng/32 nL of GABAA α5β2γ2 cDNA was injected into one oocyte. Test starts on day 2. The cDNA injected to the oocytes was a mix of alpha, beta and gamma, their ratio is 1:1:10 (by weight) and the total weight of the mixed 3 subunits to be injected in one oocyte was 1 ng in 32 nl volume. The injected oocytes can also be tested on day 3. In such case, the cDNA amount injected to the oocytes should be reduced by 20%.
Compounds of the present invention were tested using the following procedures.
• 1). 8 oocytes were placed in 8 chambers of OpusXpress and superfused with Modified Barth's Saline (MBS) at 3 mL/min. Glass electrodes back-filled with 3M KCl (0.5-3 megaohms) were used.
Control test (Diazepam or methyl 3,5-diphenylpyridazine-4-carboxylate) • 1). New oocytes was used to run new test. • 2). […] Oocytes were washed with MBS for 5-10 min. • 4). […] Itest was divided by IGABA to obtain potentiation (%). Test Compounds at Multiple Doses • 1). Repeat the above steps 1), 2) and 3) in the control test. • 2). […] Divide Itest by IGABA to obtain potentiation (%). • 3). Discard all tested oocytes, new oocytes were used and the above steps 1) and 2) were repeated to test second concentration of the same compound. Each oocyte was used for only one concentration test for a single test compound. The steps were repeated for other test compounds.

Compound `COCc1nnc2n1Cc1c(-c3cc(C)no3)ncn1-c1ccc(Cl)cc1-2` [Compound 233] has an activation at 0.1 µM of 5 to 20%.

`COCc1nnc2n1Cc1c(-c3nc(-c4ccc(F)cc4)co3)ncn1-c1ccc(Cl)cc1-2` [Compound 324] showed an activation at 0.1 µM of 20 to 50%.

`Fc1ccccc1OCc1nnc2n1Cc1c(-c3ncco3)ncn1-c1ccc(Cl)cc1-2` [Compound 355] showed an activation at 0.1 µM of 20 to 50%.

Compound `COc1ccc2c(c1)-n1nncc1Cc1c(C#CCc3cccc(Cl)c3)ncn1-2` [Compound 417] has an activation at 0.1 µM of 5 to 20%.

Work on `CCOC(=O)c1ncn2c1Cn1c(COc3ccccc3)nnc1-c1cc(OC)ccc1-2` [Compound 55] yielded an activation at 0.1 µM of 20 to 50%.

`Fc1ccccc1[C@H]1COC(c2ncn3c2Cc2cnnn2-c2cc(Cl)ccc2-3)=N1` [Compound 360] was tested, and the activation at 0.1 µM was 20 to 50%.

`COCc1nnc2n1Cc1c(-c3nc(C)no3)ncn1-c1ccc(OC)cc1-2` [Compound 128] gave an activation at 0.1 µM of 20 to 50%.

For `COc1ccc2c(c1)-n1nncc1Cc1c(C#CCc3cccc(F)c3)ncn1-2` [Compound 419], the activation at 0.1 µM was 20 to 50%.

With `CCOC(=O)c1ncn2c1Cc1c(C)nnn1-c1cc(OC)ccc1-2` [Compound 1] the activation at 0.1 µM was 20 to 50%.

`CCOC(=O)c1ncn2c1Cc1c(CN(CC)CC)nnn1-c1cc(OC)ccc1-2` [Compound 50] was tested, and the activation at 0.1 µM was 5 to 20%.

`COCc1nnc2n1Cc1c(-c3nc(-c4ccccc4F)co3)ncn1-c1ccc(Cl)cc1-2` [Compound 323] was tested, and the activation at 0.1 µM was 20 to 50%.

`COCc1nnc2n1Cc1c(C#CCc3cccc(Cl)c3)ncn1-c1ccc(Cl)cc1-2` [Compound 422] gave an activation at 0.1 µM of 20 to 50%.

`COc1ccc2c(c1)-n1nnc(COc3cccc(Br)c3)c1Cc1c(C#N)ncn1-2` [Compound 225] showed an activation at 0.1 µM of 20 to 50%.

Work on `C#Cc1ncn2c1Cn1c(COc3cccnc3)nnc1-c1cc(OC)ccc1-2` [Compound 241] yielded an activation at 0.1 µM of 5 to 20%.

For `COCc1nnc2n1Cc1c(C3=NC(C)CO3)ncn1-c1ccc(Cl)cc1-2` (centres unmarked) [Compound 243], the activation at 0.1 µM was 20 to 50%.

Compound `C#Cc1ncn2c1Cn1c(COc3ccccc3F)nnc1-c1cc(Cl)ccc1-2` [Compound 353, 15-chloro-5-ethynyl-9-(2-fluorophenoxymethyl)-2,4,8,10,11-pentaazatetracyclo[11.4.0.0^2,^60.0^8,^12]heptadeca-1(17),3,5,9,11,13,15-heptaene] has an activation at 0.1 µM of over 50%.

`CCOC(=O)c1ncn2c1Cc1c(COc3ccc(F)cc3)nnn1-c1cc(OC)ccc1-2` [Compound 10] gave an activation at 0.1 µM of 5 to 20%.

With `CCOCc1nnc2n1Cc1c(C3=N[C@H](c4ccccc4)CO3)ncn1-c1ccc(Cl)cc1-2` [Compound 271] the activation at 0.1 µM was over 50%.

Compound `Clc1ccc2c(c1)-n1nncc1Cc1c(C3=N[C@@H](c4ccccc4)CO3)ncn1-2` [Compound 357] has an activation at 0.1 µM of 20 to 50%.

In the case of `Fc1ccc2c(c1)-n1cnc(Br)c1Cc1c(Cc3ccccc3)nnn1-2` [Compound 229], the activation at 0.1 µM is reported as 5 to 20%.

With `Cc1nnn2c1Cc1c(C(=O)OC(C)C)ncn1-c1ccc(F)cc1-2` [Compound 112] the activation at 0.1 µM was 5 to 20%.

`COc1ccc2c(c1)-c1nnc(COCc3cccnc3)n1Cc1c(-c3noc(C(C)C)n3)ncn1-2` [Compound 203] gave an activation at 0.1 µM of 20 to 50%.

With `COc1ccc2c(c1)-n1nncc1Cc1c(C3=N[C@@H](c4ccc(Cl)cc4)CO3)ncn1-2` [Compound 368] the activation at 0.1 µM was 5 to 20%.

Work on `Cc1nnn2c1Cc1c(C(=O)OCC(C)(C)C)ncn1-c1ccc(F)cc1-2` [Compound 113] yielded an activation at 0.1 µM of over 50%.

`FC(F)(F)c1ccc(C#Cc2ncn3c2Cc2cnnn2-c2cc(Cl)ccc2-3)cc1` [Compound 400] gave an activation at 0.1 µM of 20 to 50%.

`CC#Cc1ncn2c1Cn1c(COc3ccccc3F)nnc1-c1cc(Cl)ccc1-2` [Compound 354] showed an activation at 0.1 µM of 20 to 50%.

In the case of `CCc1nc(-c2ncn3c2Cc2c(Cc4ccc(F)cc4)nnn2-c2cc(OC)ccc2-3)no1` [Compound 195], the activation at 0.1 µM is reported as 20 to 50%.

`Fc1ccc([C@H]2COC(c3ncn4c3Cc3cnnn3-c3cc(Cl)ccc3-4)=N2)cc1` [Compound 359] showed an activation at 0.1 µM of 5 to 20%.

For `COc1ccc2c(c1)-c1nnc(COc3ccc(F)cc3)n1Cc1c(-c3noc(C)n3)ncn1-2` [Compound 163], the activation at 0.1 µM was 20 to 50%.

Work on `Cc1noc(-c2ncn3c2Cc2c(C)nnn2-c2cc(F)ccc2-3)n1` [Compound 110] yielded an activation at 0.1 µM of 20 to 50%.

In the case of `COCc1nnc2n1Cc1c(-c3nc(-c4ccccc4)co3)ncn1-c1ccc(Cl)cc1-2` [Compound 245], the activation at 0.1 µM is reported as 5 to 20%.

`CCOC(=O)c1ncn2c1Cc1c(COc3ccccc3)nnn1-c1cc(OC)ccc1-2` [Compound 9] gave an activation at 0.1 µM of 20 to 50%.

Work on `Clc1ccc2c(c1)-c1nnc(COc3ccccc3)n1Cc1c(Br)ncn1-2` [Compound 202] yielded an activation at 0.1 µM of 20 to 50%.

In the case of `CCc1nc(-c2ncn3c2Cc2c(C)nnn2-c2cc(F)ccc2-3)no1` [Compound 155], the activation at 0.1 µM is reported as 20 to 50%.

Compound `COc1ccc2c(c1)-n1nnc(Cc3ccccc3)c1Cc1c(Br)ncn1-2` [Compound 212] has an activation at 0.1 µM of 20 to 50%.

`COCc1nnc2n1Cc1c(C3=N[C@@H](c4ccc(F)cc4)CO3)ncn1-c1ccc(Cl)cc1-2` [Compound 320] showed an activation at 0.1 µM of 20 to 50%.

Work on `COc1ccc2c(c1)-c1nnc(COc3ccccc3)n1Cc1c(C(=O)OC(C)C)ncn1-2` [Compound 120] yielded an activation at 0.1 µM of 20 to 50%.

Work on `CCc1nc(-c2ncn3c2Cn2c(COc4ccccc4)nnc2-c2cc(F)ccc2-3)no1` [Compound 158] yielded an activation at 0.1 µM of 20 to 50%.

With `CCOC(=O)c1ncn2c1Cc1c(C)nnn1-c1cc(F)ccc1-2` [Compound 2] the activation at 0.1 µM was 20 to 50%.

`COCc1nnc2n1Cc1c(C#CCc3ccccc3)ncn1-c1ccc(Cl)cc1-2` [Compound 346] gave an activation at 0.1 µM of 20 to 50%.

In the case of `COc1ccc2c(c1)-n1nnc(COc3ccccc3)c1Cc1c(C#N)ncn1-2` [Compound 224], the activation at 0.1 µM is reported as 20 to 50%.

Compound `CCC#Cc1ncn2c1Cn1c(COC)nnc1-c1cc(Cl)ccc1-2` [Compound 345] has an activation at 0.1 µM of 20 to 50%.

`C#Cc1ccc2c(c1)-c1nnc(COC)n1Cc1c(-c3nc(-c4ccccc4)co3)ncn1-2` [Compound 302] gave an activation at 0.1 µM of 5 to 20%.

`Cc1noc(-c2ncn3c2Cc2c(C)nnn2-c2ccccc2-3)n1` [Compound 126] was tested, and the activation at 0.1 µM was 20 to 50%.

Compound `COc1ccc2c(c1)-c1nnc(COc3ccccc3)n1Cc1c(C#N)ncn1-2` [Compound 122] has an activation at 0.1 µM of 5 to 20%.

`CCOCc1ncn2c1Cn1c(COC)nnc1-c1cc(Cl)ccc1-2` [Compound 215] gave an activation at 0.1 µM of 5 to 20%.

`CCOC(=O)c1ncn2c1Cc1c(COc3cccc(OC)c3)nnn1-c1cc(OC)ccc1-2` [Compound 11] showed an activation at 0.1 µM of 20 to 50%.

`CC(C)c1nc(-c2ncn3c2Cn2c(COc4ccccc4)nnc2-c2cc(F)ccc2-3)no1` [Compound 147] was tested, and the activation at 0.1 µM was 20 to 50%.

For `COc1ccc2c(c1)-n1nnc(Cc3cccnc3)c1Cc1c(C#N)ncn1-2` [Compound 210], the activation at 0.1 µM was 20 to 50%.

Work on `COc1ccc2c(c1)-n1nnc(C)c1Cc1c(Br)ncn1-2` [Compound 211] yielded an activation at 0.1 µM of 5 to 20%.

`COCc1nnc2n1Cc1c(C3=N[C@@H](c4ccccc4OC)CO3)ncn1-c1ccc(Cl)cc1-2` [Compound 331] gave an activation at 0.1 µM of 5 to 20%.

For `FC(F)(F)COCc1nnc2n1Cc1c(-c3nc(-c4ccccc4)co3)ncn1-c1ccc(Cl)cc1-2` [Compound 313], the activation at 0.1 µM was 20 to 50%.

In the case of `CC(C)c1nc(-c2ncn3c2Cn2c(COc4ccc(F)cc4)nnc2-c2cc(F)ccc2-3)no1` [Compound 189], the activation at 0.1 µM is reported as 20 to 50%.
